Measurements published in patent publication US10004701B2, “Methods and compositions for treating infection” (UNIVERSITY OF ROCHESTER, priority 2012, dated 2018).
Where a name gives a salt, the structure may show the parent alone. Read-outs that look alike come from different tables or passages of the source.

Assays:
Experiment in all cases: AK assay 384-well format, Prestwick library screening
E. cloacae = assay type: cell-based, Enterobacter cloacae; settings: Enterobacter cloacae, 3 h, 50 μM final drug concentration
P. aeruginosa = assay type: cell-based, Pseudomonas aeruginosa; settings: Pseudomonas aeruginosa, 3 h, 50 μM final drug concentration
[1] = system: A. baumannii strain 98-37-09; assay type: cell-based, Acinetobacter baumannii; settings: Acinetobacter baumannii, 983709, 3 h, 50 μM final drug concentration
K. pneumoniae = assay type: cell-based, Klebsiella pneumoniae; settings: Klebsiella pneumoniae, 3 h, 50 μM final drug concentration
[2] = system: S. aureus strain USA300-0114; assay type: cell-based, Staphylococcus aureus; settings: Staphylococcus aureus, USA300, 3 h, 50 μM final drug concentration
E. coli = assay type: cell-based, Escherichia coli; settings: Escherichia coli, 3 h, 50 μM final drug concentration
E. faecium = assay type: cell-based, Enterococcus faecium; settings: Enterococcus faecium, 3 h, 50 μM final drug concentration
[3] = planktonic E. cloacae, 384-well, cutoff for positive-scoring molecules 3-fold increase, read-out: AK-based Prestwick Library Screening Results: E. cloacae (increase in extracellular AK activity)
[4] = planktonic P. aeruginosa, 384-well, cutoff for positive-scoring molecules 3-fold increase, read-out: AK-based Prestwick Library Screening Results: P. aeruginosa (increase in extracellular AK activity)
[5] = planktonic A. baumannii, 384-well, cutoff for positive-scoring molecules 3-fold increase, read-out: AK-based Prestwick Library Screening Results: A. baumannii (increase in extracellular AK activity)
[6] = planktonic K. pneumoniae, 384-well, cutoff for positive-scoring molecules 3-fold increase, read-out: AK-based Prestwick Library Screening Results: K. pneumoniae (increase in extracellular AK activity)
[7] = planktonic S. aureus, 384-well, cutoff for positive-scoring molecules 3-fold increase, read-out: AK-based Prestwick Library Screening Results: S. aureus (increase in extracellular AK activity)
[8] = planktonic E. coli, 384-well, cutoff for positive-scoring molecules 3-fold increase, read-out: AK-based Prestwick Library Screening Results: E. coli (increase in extracellular AK activity)
[9] = planktonic E. faecium, 384-well, cutoff for positive-scoring molecules 3-fold increase, read-out: AK-based Prestwick Library Screening Results: E. faecium (increase in extracellular AK activity)
[10] = planktonic E. cloacae, 384-well, […], read-out: AK-based Prestwick Library Screening Results: E. cloacae (increase in extracellular AK activity)
[11] = planktonic P. aeruginosa, 384-well, […], read-out: AK-based Prestwick Library Screening Results: P. aeruginosa (increase in extracellular AK activity)
[12] = planktonic A. baumannii, 384-well, […], read-out: AK-based Prestwick Library Screening Results: A. baumannii (increase in extracellular AK activity)
[13] = planktonic K. pneumoniae, 384-well, […], read-out: AK-based Prestwick Library Screening Results: K. pneumoniae (increase in extracellular AK activity)
[14] = planktonic S. aureus, 384-well, […], read-out: AK-based Prestwick Library Screening Results: S. aureus (increase in extracellular AK activity)
[15] = planktonic E. coli, 384-well, […], read-out: AK-based Prestwick Library Screening Results: E. coli (increase in extracellular AK activity)
[16] = planktonic E. faecium, 384-well, […], read-out: AK-based Prestwick Library Screening Results: E. faecium (increase in extracellular AK activity)

## O=C(NCC1CCCCN1)c1cc(OCC(F)(F)F)ccc1OCC(F)(F)F (stereo not drawn) [Flecainide acetate]
E. cloacae; planktonic, cutoff for positive-scoring molecules 3-fold increase, read-out: AK-based Prestwick Library Screening Results, E. cloacae (fold increase in extracellular AK activity)
  fold induction at 50 µM: 0.7
P. aeruginosa; planktonic, cutoff for positive-scoring molecules 3-fold increase, read-out: AK-based Prestwick Library Screening Results, P. aeruginosa (fold increase in extracellular AK activity)
  fold induction at 50 µM: 0.6
[1]; planktonic, cutoff for positive-scoring molecules 3-fold increase, read-out: AK-based Prestwick Library Screening Results, A. baumannii (fold increase in extracellular AK activity)
  fold induction at 50 µM: 0.8
K. pneumoniae; planktonic, cutoff for positive-scoring molecules 3-fold increase, read-out: AK-based Prestwick Library Screening Results, K. pneumoniae (fold increase in extracellular AK activity)
  fold induction at 50 µM: 0.6
[2]; planktonic, cutoff for positive-scoring molecules 3-fold increase, read-out: AK-based Prestwick Library Screening Results, S. aureus (fold increase in extracellular AK activity)
  fold induction at 50 µM: 0.7
E. coli; planktonic, cutoff for positive-scoring molecules 3-fold increase, read-out: AK-based Prestwick Library Screening Results, E. coli (fold increase in extracellular AK activity)
  fold induction at 50 µM: 0.6
E. faecium; planktonic, cutoff for positive-scoring molecules 3-fold increase, read-out: AK-based Prestwick Library Screening Results, E. faecium (fold increase in extracellular AK activity)
  fold induction at 50 µM: 0.9

## Cc1onc(-c2c(F)cccc2Cl)c1C(=O)N[C@@H]1C(=O)N2[C@@H]1SC(C)(C)[C@@H]2C(=O)O [Flucloxacillin sodium]
E. cloacae; planktonic E. cloacae, positive cutoff 3-fold increase, read-out: AK-based Prestwick library screening result, E. cloacae (fold increase in extracellular AK activity)
  fold induction at 50 µM: 1.3
P. aeruginosa; planktonic P. aeruginosa, positive cutoff 3-fold increase, read-out: AK-based Prestwick library screening result, P. aeruginosa (fold increase in extracellular AK activity)
  fold induction at 50 µM: 1.2
[1]; planktonic A. baumannii, positive cutoff 3-fold increase, read-out: AK-based Prestwick library screening result, A. baumannii (fold increase in extracellular AK activity)
  fold induction at 50 µM: 1.5
K. pneumoniae; planktonic K. pneumoniae, positive cutoff 3-fold increase, read-out: AK-based Prestwick library screening result, K. pneumoniae (fold increase in extracellular AK activity)
  fold induction at 50 µM: 1.1
[2]; planktonic S. aureus, positive cutoff 3-fold increase, read-out: AK-based Prestwick library screening result, S. aureus (fold increase in extracellular AK activity)
  fold induction at 50 µM: 6.1
E. coli; planktonic E. coli, positive cutoff 3-fold increase, read-out: AK-based Prestwick library screening result, E. coli (fold increase in extracellular AK activity)
  fold induction at 50 µM: 1.3
E. faecium; planktonic E. faecium, positive cutoff 3-fold increase, read-out: AK-based Prestwick library screening result, E. faecium (fold increase in extracellular AK activity)
  fold induction at 50 µM: 1

## Nc1[nH]c(=O)ncc1F [Flucytosine]
E. cloacae; cutoff for positive-scoring molecules 3-fold increase, read-out: AK-based Prestwick Library Screening Results, E. cloacae (fold increase in extracellular AK activity)
  fold induction at 50 µM: 1.8
P. aeruginosa; cutoff for positive-scoring molecules 3-fold increase, read-out: AK-based Prestwick Library Screening Results, P. aeruginosa (fold increase in extracellular AK activity)
  fold induction at 50 µM: 1.1
[1]; cutoff for positive-scoring molecules 3-fold increase, read-out: AK-based Prestwick Library Screening Results, A. baumannii (fold increase in extracellular AK activity)
  fold induction at 50 µM: 1.2
K. pneumoniae; cutoff for positive-scoring molecules 3-fold increase, read-out: AK-based Prestwick Library Screening Results, K. pneumoniae (fold increase in extracellular AK activity)
  fold induction at 50 µM: 0.8
[2]; cutoff for positive-scoring molecules 3-fold increase, read-out: AK-based Prestwick Library Screening Results, S. aureus (fold increase in extracellular AK activity)
  fold induction at 50 µM: 1.1
E. coli; cutoff for positive-scoring molecules 3-fold increase, read-out: AK-based Prestwick Library Screening Results, E. coli (fold increase in extracellular AK activity)
  fold induction at 50 µM: 1.1
E. faecium; cutoff for positive-scoring molecules 3-fold increase, read-out: AK-based Prestwick Library Screening Results, E. faecium (fold increase in extracellular AK activity)
  fold induction at 50 µM: 0.9

## CC(=O)OCC(=O)[C@@]1(O)CC[C@H]2[C@@H]3CCC4=CC(=O)CC[C@]4(C)[C@@]3(F)[C@@H](O)C[C@@]21C [Fludrocortisone acetate]
E. cloacae; [3]
  fold induction at 50 µM: 1.4
P. aeruginosa; [4]
  fold induction at 50 µM: 1.2
[1]; [5]
  fold induction at 50 µM: 1.2
K. pneumoniae; [6]
  fold induction at 50 µM: 1
[2]; [7]
  fold induction at 50 µM: 1
E. coli; [8]
  fold induction at 50 µM: 1.3
E. faecium; [9]
  fold induction at 50 µM: 1.1

## O=C(O)c1ccccc1Nc1cccc(C(F)(F)F)c1 [Flufenamic acid]
E. cloacae; [10]
  fold induction at 50 µM: 1.8
P. aeruginosa; [11]
  fold induction at 50 µM: 1.1
[1]; [12]
  fold induction at 50 µM: 1.3
K. pneumoniae; [13]
  fold induction at 50 µM: 1
[2]; [14]
  fold induction at 50 µM: 0.5
E. coli; [15]
  fold induction at 50 µM: 1
E. faecium; [16]
  fold induction at 50 µM: 1

## CC1CCc2cc(F)cc3c(=O)c(C(=O)O)cn1c23 (stereo not drawn) [Flumequine]
E. cloacae; [10]
  fold induction at 50 µM: 24.4
P. aeruginosa; [11]
  fold induction at 50 µM: 1.4
[1]; [12]
  fold induction at 50 µM: 2.9
K. pneumoniae; [13]
  fold induction at 50 µM: 2.2
[2]; [14]
  fold induction at 50 µM: 2.2
E. coli; [15]
  fold induction at 50 µM: 13.6
E. faecium; [16]
  fold induction at 50 µM: 1.5

## Fc1ccc(C(c2ccc(F)cc2)N2CCN(C/C=C/c3ccccc3)CC2)cc1 [Flunarizine dihydrochloride]
E. cloacae; [3]
  fold induction at 50 µM: 1.6
P. aeruginosa; [4]
  fold induction at 50 µM: 1.3
[1]; [5]
  fold induction at 50 µM: 2.6
K. pneumoniae; [6]
  fold induction at 50 µM: 1.4
[2]; [7]
  fold induction at 50 µM: 1.1
E. coli; [8]
  fold induction at 50 µM: 1.7
E. faecium; [9]
  fold induction at 50 µM: 1.3

## CC1(C)O[C@@H]2C[C@H]3[C@@H]4C[C@H](F)C5=CC(=O)C=C[C@]5(C)[C@H]4[C@@H](O)C[C@]3(C)[C@]2(C(=O)CO)O1 [Flunisolide]
E. cloacae; planktonic, cutoff for positive 3-fold increase, read-out: AK-based Prestwick Library Screening Results, E. cloacae (fold increase in extracellular AK activity)
  fold induction at 50 µM: 0.3
P. aeruginosa; planktonic, cutoff for positive 3-fold increase, read-out: AK-based Prestwick Library Screening Results, P. aeruginosa (fold increase in extracellular AK activity)
  fold induction at 50 µM: 0.3
[1]; planktonic, cutoff for positive 3-fold increase, read-out: AK-based Prestwick Library Screening Results, A. baumannii (fold increase in extracellular AK activity)
  fold induction at 50 µM: 0.4
K. pneumoniae; planktonic, cutoff for positive 3-fold increase, read-out: AK-based Prestwick Library Screening Results, K. pneumoniae (fold increase in extracellular AK activity)
  fold induction at 50 µM: 0.5
[2]; planktonic, cutoff for positive 3-fold increase, read-out: AK-based Prestwick Library Screening Results, S. aureus (fold increase in extracellular AK activity)
  fold induction at 50 µM: 0.4
E. coli; planktonic, cutoff for positive 3-fold increase, read-out: AK-based Prestwick Library Screening Results, E. coli (fold increase in extracellular AK activity)
  fold induction at 50 µM: 0.5
E. faecium; planktonic, cutoff for positive 3-fold increase, read-out: AK-based Prestwick Library Screening Results, E. faecium (fold increase in extracellular AK activity)
  fold induction at 50 µM: 0.9

## Cc1c(Nc2ncccc2C(=O)O)cccc1C(F)(F)F [Flunixin meglumine]
E. cloacae; planktonic, […], read-out: AK-based Prestwick Library Screening Results, E. cloacae (fold increase in extracellular AK activity)
  fold induction at 50 µM: 1
P. aeruginosa; planktonic, […], read-out: AK-based Prestwick Library Screening Results, P. aeruginosa (fold increase in extracellular AK activity)
  fold induction at 50 µM: 0.6
[1]; planktonic, […], read-out: AK-based Prestwick Library Screening Results, A. baumannii (fold increase in extracellular AK activity)
  fold induction at 50 µM: 0.5
K. pneumoniae; planktonic, […], read-out: AK-based Prestwick Library Screening Results, K. pneumoniae (fold increase in extracellular AK activity)
  fold induction at 50 µM: 0.5
[2]; planktonic, […], read-out: AK-based Prestwick Library Screening Results, S. aureus (fold increase in extracellular AK activity)
  fold induction at 50 µM: 0.5
E. coli; planktonic, […], read-out: AK-based Prestwick Library Screening Results, E. coli (fold increase in extracellular AK activity)
  fold induction at 50 µM: 0.6
E. faecium; planktonic, […], read-out: AK-based Prestwick Library Screening Results, E. faecium (fold increase in extracellular AK activity)
  fold induction at 50 µM: 0.6
